# Measured values published in patent US12194024B2, “Pharmaceutical composition of MDM2 inhibitor and use thereof for preventing and/or treating disease” (ASCENTAGE PHARMA (SUZHOU) CO., LTD., priority 2019, dated 2025).
# Assays:
# MOLM-13 = test: CellTiter-Glo (CTG) cell proliferation experiment; type: cell-based; conditions: Homo sapiens, TP53 wt, FLT3-ITD, 72 hours, read-out: IC50 values, nM (Mean ± SD, n = 2 or 3)
# NCI-H2122 = test: CTG cell proliferation experiment, NSCLC; type: cell-based; conditions: Homo sapiens; NCI-H2122, STK11 and KRAS co-mutated; 72 hours
# Protocol: (§1) For the combined experiment, the final volume of 2 test substances is 5 μl/well.
# (§2) The nonlinear regression data analysis method of Graphpad Prism 6.0 software ([…]) is used for calculating IC50.
# (§3) For the combined experiment, the average fluorescence value of the 3 repeated wells of the single drug control is normalized for calculating cell survival rate.
# NCI-H460 = test: CTG cell proliferation experiment, NSCLC; type: cell-based; conditions: Homo sapiens; NCI-H460, STK11 and KRAS co-mutated; 72 hours
# Protocol: as §1, §2, §3
# A549 = test: CTG cell proliferation experiment, NSCLC; type: cell-based; conditions: Homo sapiens; A549, STK11 and KRAS co-mutated; 72 hours
# Protocol: as §1, §2, §3
# SKM-1 = test: CellTiter-Glo (CTG) cell proliferation experiment; type: cell-based; conditions: Homo sapiens, TP53 mut, 72 hours, read-out: IC50 values, nM (Mean ± SD, n = 2 or 3)
# [1] = test system: dimethylbenzanthracene-induced rat myelodysplastic syndrome (MDS); test: Dimethylbenzanthracene-induced rat myelodysplastic syndrome (MDS) model; type: in vivo, SD rat; conditions: p.o., q2d×21 d; for average WBCB value of bone marrow: MDS model group 16.89±2.75; for average PLT value of bone marrow: MDS model group 52±2.49
# Protocol: Multiple human-derived rat MDS model is used for evaluating the in vivo anti-tumor effect of compound 2 alone.
# The rat myelodysplastic syndrome (MDS) model is constructed using a chemical mutagenic agent dimethylbenzanthracene (DMBA). in the rat MDS model, the changes of myelogram and hemogram are similar to that of human myelodysplastic syndromes, and it is confirmed that it can be used for the anti-MDS effect study of drugs. DMBA is administered at 50 mg/kg, i.v. Following the once per week regimen for 4 weeks totally to establish the rat MDS model. One week after the end of DMBA administration (day 28), peripheral blood is collected from the caudal vein for routine blood test to determine whether the model is established successfully.
# The animals are randomly divided into groups according to the PLT level on day 28, wherein a vehicle control group (Vehicle), two dosage groups of compound 2 (10 mg/kg) and compound 2 (30 mg/kg) (corresponding to the number 23 regimen in table 3), and healthy control group (naive) are totally set, each group has 5 animals.
# Compound 2 is administered following 10 mg/kg or 30 mg/kg, p.o., q2d×21 d regimens. After the administration, the peripheral blood and bone marrow cells from each group of animals for routine blood analysis.
# HL-60 = test: CellTiter-Glo (CTG) cell proliferation experiment; type: cell-based; conditions: Homo sapiens, TP53 Del, 72 hours, read-out: IC50 values, nM (Mean ± SD, n = 2 or 3)
# [2] = test system: human OCI-AML-3 AML xenograft tumor; test: Subcutaneous OCI-AML-3 AML mouse xenograft tumor model; type: in vivo, NOD SCID mice; conditions: Compound 2 50 mg/kg orally q2d, Azacitidine 2 mg/kg i.v., Decitabine 1 mg/kg i.v.
# Protocol: For subcutaneous model, OCI-AML-3 cells (1×10^6) are injected subcutaneously into the right side of the abdomen of 6- to 8-week-old mice. About 10 days after the cell inoculation, the mice are randomly divided into groups based on the primary tumor size achieving about 100-150 mm^3 of average tumor volume.
# The tumor diameter is measured twice using a vernier caliper each week. The computational formula of the tumor volume (TV) is: TV=a×b^2/2. In the computational formula, a and b represent the length and width of the tumor measurement respectively. The computational formula of the relative tumor volume (RTV) is: RTV=VtN1. In the computational formula, V1 is the tumor volume when being grouped and administered, and Vt is the tumor volume when being measured at a certain day after the administration.
# The tumor remission rate (%) is derived by dividing the number of SD (Stable Disease), PR (Partial response) and CR (Complete response) appearing in the tumor bearing mice after treatment by the total number of mice in the group×100%.
# The synergistic analysis uses the following formula (reference can be made to Gould S E et al., Translational value of mouse models in oncology drug development, Nature medicine, 2015 21, 431-439): synergistic factor=((A/C)×(B/C))/(AB/C); A=RTV value of the A drug alone group; B=RTV value of the B drug alone group; C=RTV value of the vehicle control group, AB=RTV value of the AB combined group (Clarke R., Issues in experimental design and endpoint analysis in the study of experimental cytotoxic agents in vivo in breast cancer and other models[J], Breast Cancer Research & Treatment, 1997, 46 (2-3):255-278).
# For subcutaneous model, OCI-AML-3 cells (1×10^6) are injected subcutaneously into the right side of the abdomen of 6- to 8-week-old mice. About 10 days after the cell inoculation, the mice are randomly divided into groups based on the primary tumor size achieving about 100-150 mm^3 of average tumor volume. Compound 2 is administered alone or in combination (50 mg/kg, is taken orally, every other day for 15 days) and Aza (2 mg/kg, intravenous injection each day for 7 days) or Dec (1 mg/kg, intravenous injection each day for 7 days). The tumor volume is measured twice using a vernier caliper each week and is represented by following formula in mm^3: V=0.5a×b^2; in the formula, a and b are the long diameter and short diameter of the tumor respectively. […] RTV=VtN1; wherein V1 and Vt are the average tumor volume on the first day (day 1) in the treatment, and the average tumor volume of a certain time point (day t) respectively.
# Azacitidine is administered following 2 mg/kg, caudal vein injection, qd×7d, drug withdrawal 7 days, then qd×2 day regimens for seven days (corresponding to the number 68 regimen in table 7).
structure (smiles),measurement,setting,value
CCN1[C@@H](C(=O)NC23CCC(C(=O)O)(CC2)CC3)[C@H](c2cccc(Cl)c2F)[C@]2(C(=O)Nc3cc(Cl)ccc32)C12CCCCC2 [Compound 2],IC50,MOLM-13,26.8 ± 4.9 nM
same,IC50,NCI-H2122,79 nM
same,IC50,NCI-H460,330 nM
same,IC50,A549,33 nM
same,IC50,SKM-1,8950 ± 570 nM
same,average WBCB value of bone marrow,[1]; 10 mg/kg,47.5±10.13 cells/μl
same,average PLT value of bone marrow,[1]; 10 mg/kg,116±9.35 cells/μl
same,average WBCB value of bone marrow,[1]; 30 mg/kg,62.53±13.08 cells/μl
same,average PLT value of bone marrow,[1]; 30 mg/kg,124.2±23.8 cells/μl
same,IC50,HL-60,2560 ± 582 nM
same,T/C value (%) (d15),[2],84.8%
same,"Relative tumor volume (RTV, Mean ± SEM)","[2]; d15, vehicle 16.5 ± 4.1",14.0 ± 2.7
